Measurements from article PMC8911585, “Unique Properties of Heme Binding of the Porphyromonas gingivalis HmuY Hemophore-like Protein Result from the Evolutionary Adaptation of the Protein Structure” (Molecules, 2022).
Read-outs that look alike come from different tables or passages of the source.

Key:
[1] = molecular target: T1, HmuY (Porphyromonas gingivalis, UniProt A2I2W2, H134M); assay: biochemical
[2] = molecular target: T1, HmuY; assay: biochemical; remark: listed apart in the source

T1 sequence (A2I2W2 26-216 H134M): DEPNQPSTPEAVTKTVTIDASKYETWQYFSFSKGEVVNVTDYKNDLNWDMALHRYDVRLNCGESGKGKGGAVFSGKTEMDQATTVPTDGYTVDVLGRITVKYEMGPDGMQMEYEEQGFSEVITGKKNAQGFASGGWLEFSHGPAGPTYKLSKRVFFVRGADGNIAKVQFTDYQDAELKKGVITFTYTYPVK

| Compound | Kd [1] | Kd [2] |
| --- | --- | --- |
| C=CC1=C(C)C2=Cc3c(C=C)c(C)c4[n]3[Fe]([Cl])[n]3c(c(C)c(CCC(=O)O)c3=CC3=NC(=C4)C(C)=C3CCC(=O)O)=CC1=N2 [Fe(III)heme] | 12 µM |  |
| C=CC1=C(C)C2=Cc3c(C=C)c(C)c4[n]3[Fe][n]3c(c(C)c(CCC(=O)O)c3=CC3=NC(=C4)C(C)=C3CCC(=O)O)=CC1=N2 [Fe(II)heme] |  | 0.011 µM |
